Measurements: patent publication US20220273683A1, “BORON-CONTAINING SMALL MOLECULES” (Bill & Melinda Gates Foundation, priority 2016, published 2022)

Key:
[1] = system: Staphylococcus aureus, MRSA (ATCC 33591); experiment: Antibacterial MIC assay (microbroth dilution, CLSI); type: cell-based; details: 35° C., 16-20 hours
Text: (§1) All MIC testing of bacteria followed the Clinical and Laboratory Standards Institute (CLSI) guidelines for antimicrobial testing of aerobic bacteria (Methods for Dilution Antimicrobial Susceptibility Tests for Bacteria that Grow Aerobically; Approved Standard—Tenth Edition, M07-A10; Performance Standards for Antimicrobial Susceptibility Testing; Twenty-fifth Informational Supplement, M100-S25).
(§2) Briefly, the microbroth dilution MIC method was used to quantitatively measure the in vitro antibacterial activity of a compound against a given bacterial isolate. The following bacterial strains were evaluated: Staphylococcus aureus, MRSA (ATCC 33591) and Streptococcus pneumoniae (ATCC 49619). Bacteria were grown in cation-adjusted Mueller-Hinton broth, with additions as required per species growth requirements (e.g. 3% lysed horse blood for fastidious organisms such as S. pneumoniae). A direct colony suspension in saline was prepared from colonies on an overnight agar plate to achieve a turbidity equivalent to 0.5 McFarland standard, which was subsequently diluted into the assay plate to achieve 5×10^5 CFU/mL. Assays plates were prepared by 2-fold dilution of compound across the plate and included a positive growth control.

[2] = system: Streptococcus pneumoniae (ATCC 49619); experiment: as above; type: cell-based; details: 3% lysed horse blood, 35° C., 16-20 hours
Text: as §1, §2

| Structure (SMILES) | MIC Staphylococcus aureus, MRSA (ATCC 33591) [1] | MIC Streptococcus pneumoniae (ATCC 49619) [2] |
| --- | --- | --- |
| COC[C@]1(C)C[C@@H](OC(=O)COc2ccc3c(c2F)B(O)OC3)[C@]2(C)[C@H](C)CC[C@]3(CCC(=O)[C@H]32)[C@@H](C)[C@@H]1O [Compound 24, (3aR,4R,5R,7S,8S,9R,9aS,12R)-8-hydroxy-7-(methoxymethyl)-4,7,9,12-tetramethyl-3-oxodecahydro-4,9a-propanocyclopenta[8]annulen-5-yl2-((7-fluoro-1-hydroxy-1,3-dihydrobenzo[c][1,2]oxaborol-6-yl)oxy)acetate] | A (MIC of ≤0.25 is A) | C (4-32 is C) |
| C[C@@H]1CC[C@@]23CCC(=O)[C@H]2[C@]1(C)[C@H](OC(=O)COc1ccc2c(c1F)B(O)OC2)C[C@@](C)(CCO)[C@@H](O)[C@@H]3C [Compound 25, (3aR,4R,5R,7R,8S,9R,9aS,12R)-8-hydroxy-7-(2-hydroxyethyl)-4,7,9,12-tetramethyl-3-oxodecahydro-4,9a-propanocyclopenta[8]annulen-5-yl2-((7-fluoro-1-hydroxy-1,3-dihydrobenzo[c][1,2]oxaborol-6-yl)oxy)acetate] | B (0.5-2 is B) | C (4-32 is C) |
| COCC[C@]1(C)C[C@@H](OC(=O)COc2ccc3c(c2F)B(O)OC3)[C@]2(C)[C@H](C)CC[C@]3(CCC(=O)[C@H]32)[C@@H](C)[C@@H]1O [Compound 26, (3aR,4R,5R,7R,8S,9R,9aS,12R)-8-hydroxy-7-(2-methoxyethyl)-4,7,9,12-tetramethyl-3-oxodecahydro-4,9a-propanocyclopenta[8]annulen-5-yl2-((7-fluoro-1-hydroxy-1,3-dihydrobenzo[c][1,2]oxaborol-6-yl)oxy)acetate] | A (MIC of ≤0.25 is A) | C (4-32 is C) |
| C[C@@H]1CC[C@@]23CCC(=O)[C@H]2[C@]1(C)[C@H](OC(=O)COc1ccc2c(c1F)B(O)OC2)C[C@@](C)([C@@H]1CO1)[C@@H](O)[C@@H]3C [Compound 27, (3aR,4R,5R,7R,8S,9R,9aS,12R)-8-hydroxy-4,7,9,12-tetramethyl-7-((R)-oxiran-2-yl)-3-oxodecahydro-4,9a-propanocyclopenta[8]annulen-5-yl2-((7-fluoro-1-hydroxy-1,3-dihydrobenzo[c][1,2]oxaborol-6-yl)oxy)acetate] | A (MIC of ≤0.25 is A) | B (0.5-2 is B) |
| CSC[C@]1(C)C[C@@H](OC(=O)COc2ccc3c(c2F)B(O)OC3)[C@]2(C)[C@H](C)CC[C@]3(CCC(=O)[C@H]32)[C@@H](C)[C@@H]1O [Compound 29, (3aR,4R,5R,7R,8S,9R,9aS,12R)-8-hydroxy-4,7,9,12-tetramethyl-7-((methylthio)methyl)-3-oxodecahydro-4,9a-propanocyclopenta[8]annulen-5-yl2-((7-fluoro-1-hydroxy-1,3-dihydrobenzo[c][1,2]oxaborol-6-yl)oxy)acetate] | A (MIC of ≤0.25 is A) | C (4-32 is C) |
| C[C@@H]1CC[C@@]23CCC(=O)[C@H]2[C@]1(C)[C@H](OC(=O)COc1ccc2c(c1F)B(O)OC2)C[C@@](C)(C[S+](C)[O-])[C@@H](O)[C@@H]3C (stereo partly drawn) [Compound 30, (3aR,4R,5R,7R,8S,9R,9aS,12R)-8-hydroxy-4,7,9,12-tetramethyl-7-((methylsulfinyl)methyl)-3-oxodecahydro-4,9a-propanocyclopenta[8]annulen-5-yl2-((7-fluoro-1-hydroxy-1,3-dihydrobenzo[c][1,2]oxaborol-6-yl)oxy)acetate] | B (0.5-2 is B) | C (4-32 is C) |
| C[C@@H]1CC[C@@]23CCC(=O)[C@H]2[C@]1(C)[C@H](OC(=O)COc1ccc2c(c1F)B(O)OC2)C[C@@](C)(C=O)[C@@H](O)[C@@H]3C [Compound 31, (3aR,4R,5R,7R,8S,9R,9aS,12R)-7-formyl-8-hydroxy-4,7,9,12-tetramethyl-3-oxodecahydro-4,9a-propanocyclopenta[8]annulen-5-yl2-((7-fluoro-1-hydroxy-1,3-dihydrobenzo[c][1,2]oxaborol-6-yl)oxy)acetate] | A (MIC of ≤0.25 is A) | B (0.5-2 is B) |
| CNC[C@]1(C)C[C@@H](OC(=O)COc2ccc3c(c2F)B(O)OC3)[C@]2(C)[C@H](C)CC[C@]3(CCC(=O)[C@H]32)[C@@H](C)[C@@H]1O [Compound 32, (3aR,4R,5R,7S,8S,9R,9aS,12R)-8-hydroxy-4,7,9,12-tetramethyl-7-((methylamino)methyl)-3-oxodecahydro-4,9a-propanocyclopenta[8]annulen-5-yl2-((7-fluoro-1-hydroxy-1,3-dihydrobenzo[c][1,2]oxaborol-6-yl)oxy)acetate] | B (0.5-2 is B) | C (4-32 is C) |
| C[C@@H]1CC[C@@]23CCC(=O)[C@H]2[C@]1(C)[C@H](OC(=O)COc1ccc2c(c1F)B(O)OC2)C[C@@](C)(CN(C)C)[C@@H](O)[C@@H]3C [Compound 33, (3aR,4R,5R,7S,8S,9R,9aS,12R)-7-((dimethylamino)methyl)-8-hydroxy-4,7,9,12-tetramethyl-3-oxodecahydro-4,9a-propanocyclopenta[8]annulen-5-yl2-((7-fluoro-1-hydroxy-1,3-dihydrobenzo[c][1,2]oxaborol-6-yl)oxy)acetate] | B (0.5-2 is B) | C (4-32 is C) |
| CCNC[C@]1(C)C[C@@H](OC(=O)COc2ccc3c(c2F)B(O)OC3)[C@]2(C)[C@H](C)CC[C@]3(CCC(=O)[C@H]32)[C@@H](C)[C@@H]1O [Compound 34, (3aR,4R,5R,7S,8S,9R,9aS,12R)-7-((ethylamino)methyl)-8-hydroxy-4,7,9,12-tetramethyl-3-oxodecahydro-4,9a-propanocyclopenta[8]annulen-5-yl2-((7-fluoro-1-hydroxy-1,3-dihydrobenzo[c][1,2]oxaborol-6-yl)oxy)acetate] | C (4-32 is C) | C (4-32 is C) |
| CCCNC[C@]1(C)C[C@@H](OC(=O)COc2ccc3c(c2F)B(O)OC3)[C@]2(C)[C@H](C)CC[C@]3(CCC(=O)[C@H]32)[C@@H](C)[C@@H]1O [Compound 35, (3aR,4R,5R,7S,8S,9R,9aS,12R)-8-hydroxy-4,7,9,12-tetramethyl-3-oxo-7-((propylamino)methyl)decahydro-4,9a-propanocyclopenta[8]annulen-5-yl2-((7-fluoro-1-hydroxy-1,3-dihydrobenzo[c][1,2]oxaborol-6-yl)oxy)acetate] | C (4-32 is C) | C (4-32 is C) |
| CCCCNC[C@]1(C)C[C@@H](OC(=O)COc2ccc3c(c2F)B(O)OC3)[C@]2(C)[C@H](C)CC[C@]3(CCC(=O)[C@H]32)[C@@H](C)[C@@H]1O [Compound 36, (3aR,4R,5R,7S,8S,9R,9aS,12R)-7-((butylamino)methyl)-8-hydroxy-4,7,9,12-tetramethyl-3-oxodecahydro-4,9a-propanocyclopenta[8]annulen-5-yl2-((7-fluoro-1-hydroxy-1,3-dihydrobenzo[c][1,2]oxaborol-6-yl)oxy)acetate] | B (0.5-2 is B) | C (4-32 is C) |
| C[C@@H]1CC[C@@]23CCC(=O)[C@H]2[C@]1(C)[C@H](OC(=O)COc1ccc2c(c1F)B(O)OC2)C[C@@](C)(CNC1CC1)[C@@H](O)[C@@H]3C [Compound 37, (3aR,4R,5R,7S,8S,9R,9aS,12R)-7-((cyclopropylamino)methyl)-8-hydroxy-4,7,9,12-tetramethyl-3-oxodecahydro-4,9a-propanocyclopenta[8]annulen-5-yl2-((7-fluoro-1-hydroxy-1,3-dihydrobenzo[c][1,2]oxaborol-6-yl)oxy)acetate] | B (0.5-2 is B) | C (4-32 is C) |
| C[C@@H]1CC[C@@]23CCC(=O)[C@H]2[C@]1(C)[C@H](OC(=O)COc1ccc2c(c1F)B(O)OC2)C[C@@](C)(CN1CCC1)[C@@H](O)[C@@H]3C [Compound 38, (3aR,4R,5R,7S,8S,9R,9aS,12R)-7-(azetidin-1-ylmethyl)-8-hydroxy-4,7,9,12-tetramethyl-3-oxodecahydro-4,9a-propanocyclopenta[8]annulen-5-yl2-((7-fluoro-1-hydroxy-1,3-dihydrobenzo[c][1,2]oxaborol-6-yl)oxy)acetate] | B (0.5-2 is B) | C (4-32 is C) |
| C[C@@H]1CC[C@@]23CCC(=O)[C@H]2[C@]1(C)[C@H](OC(=O)COc1ccc2c(c1F)B(O)OC2)C[C@@](C)(CCN1CCC1)[C@@H](O)[C@@H]3C [Compound 39, (3aR,4R,5R,7R,8S,9R,9aS,12R)-7-(2-(azetidin-1-yl)ethyl)-8-hydroxy-4,7,9,12-tetramethyl-3-oxodecahydro-4,9a-propanocyclopenta[8]annulen-5-yl2-((7-fluoro-1-hydroxy-1,3-dihydrobenzo[c][1,2]oxaborol-6-yl)oxy)acetate] | C (4-32 is C) | C (4-32 is C) |
